Source: the NIST ThermoML archive (doi:10.1021/je030147g)

What was measured:
[1] = refractive index (Na D-line) (dimensionless); xn = mol fraction of the nth substance listed; conditions: 101.33 kPa, Liquid
[2] = xn = mol fraction of the nth substance listed; conditions: 101.33 kPa, Liquid

CCCCN(CCCC)CCCC [tributylamine] + ClC=C(Cl)Cl
x1 = 1
Conditions | mass density, 298.15 K [kg/m3] | mass density, 303.15 K [kg/m3] | mass density, 308.15 K [kg/m3] | refractive index, 298.15 K | refractive index, 303.15 K | refractive index, 308.15 K | speed of sound, 298.15 K [m/s] | viscosity, 298.15 K [mPa·s] | viscosity, 303.15 K [mPa·s] | viscosity, 308.15 K [mPa·s]
[1] | – | – | – | 1.4276 | 1.4255 | 1.4228 | – | – | – | –
[2] | 773.3 | 769.2 | 765.7 | – | – | – | 1262 | 1.239 | 1.124 | 1.028

ClC(Cl)=C(Cl)Cl [tetrachloroethene] + CCCCN(CCCC)CCCC
x2 = 0
Conditions | mass density, 298.15 K [kg/m3] | mass density, 303.15 K [kg/m3] | mass density, 308.15 K [kg/m3] | refractive index, 298.15 K | refractive index, 303.15 K | refractive index, 308.15 K | speed of sound, 298.15 K [m/s] | viscosity, 298.15 K [mPa·s] | viscosity, 303.15 K [mPa·s] | viscosity, 308.15 K [mPa·s]
[1] | – | – | – | 1.5036 | 1.5005 | 1.4978 | – | – | – | –
[2] | 1616 | 1607.5 | 1597.5 | – | – | – | 1033 | 0.875 | 0.831 | 0.791

CCCCN(CCCC)CCCC [tributylamine] + c1ccncc1
Conditions | mass density, 298.15 K [kg/m3] | mass density, 303.15 K [kg/m3] | mass density, 308.15 K [kg/m3] | refractive index, 298.15 K | refractive index, 303.15 K | refractive index, 308.15 K | speed of sound, 298.15 K [m/s] | viscosity, 298.15 K [mPa·s] | viscosity, 303.15 K [mPa·s] | viscosity, 308.15 K [mPa·s]
[1], x1 = 0.0977 | – | – | – | 1.4866 | 1.483 | 1.4795 | – | – | – | –
[1], x1 = 0.1951 | – | – | – | 1.4708 | 1.4685 | 1.4662 | – | – | – | –
[1], x1 = 0.2949 | – | – | – | 1.4606 | 1.4574 | 1.4542 | – | – | – | –
[1], x1 = 0.3938 | – | – | – | 1.4513 | 1.4491 | 1.447 | – | – | – | –
[1], x1 = 0.4898 | – | – | – | 1.4464 | 1.4428 | 1.4392 | – | – | – | –
[1], x1 = 0.5884 | – | – | – | 1.4403 | 1.4376 | 1.4348 | – | – | – | –
[1], x1 = 0.6899 | – | – | – | 1.4359 | 1.4335 | 1.4311 | – | – | – | –
[1], x1 = 0.7846 | – | – | – | 1.4333 | 1.43 | 1.4268 | – | – | – | –
[1], x1 = 0.8869 | – | – | – | 1.4303 | 1.4277 | 1.4252 | – | – | – | –
[1], x1 = 1 | – | – | – | 1.4276 | 1.4255 | 1.4228 | – | – | – | –
[2], x1 = 0.0977 | 927.2 | 922.3 | 917.4 | – | – | – | 1363 | 0.895 | 0.833 | 0.771
[2], x1 = 0.1951 | 890.5 | 885.6 | 880.7 | – | – | – | 1333 | 0.914 | 0.849 | 0.783
[2], x1 = 0.2949 | 862.6 | 858 | 853.3 | – | – | – | 1308 | 0.941 | 0.872 | 0.804
[2], x1 = 0.3938 | 841.3 | 836.8 | 832.2 | – | – | – | 1290 | 0.971 | 0.898 | 0.825
[2], x1 = 0.4898 | 824.7 | 820.3 | 815.9 | – | – | – | 1282 | 1.002 | 0.925 | 0.848
[2], x1 = 0.5884 | 810.8 | 806.5 | 802.1 | – | – | – | 1278 | 1.038 | 0.957 | 0.876
[2], x1 = 0.6899 | 799 | 794.7 | 790.5 | – | – | – | 1275 | 1.077 | 0.993 | 0.909
[2], x1 = 0.7846 | 789.9 | 785.7 | 781.6 | – | – | – | 1271 | 1.122 | 1.031 | 0.94
[2], x1 = 0.8869 | 781.6 | 777.5 | 773.3 | – | – | – | 1266 | 1.175 | 1.077 | 0.979
[2], x1 = 1 | 773.9 | 769.2 | 765.7 | – | – | – | 1262 | 1.239 | 1.124 | 1.028
